Drawing on PubChem BioAssay (NCI), this text covers TGI and GI50 for twelve compounds.

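Five concentrations, 48 hours, 96-well plates. Abbreviation: GI50, concentration required for 50% inhibition of growth. The concentration for full growth arrest is given as TGI.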

Among the test systems are UACC-257 melanoma; MALME-3M melanoma; OVCAR-4 ovarian; A549 NSCLC; M14 melanoma; OVCAR-3 ovarian; SN12C renal; NCI-H23 lung; NCI-H460 lung; LOX IMVI melanoma.
Assay in all cases: NCI-60 cell line screen, 48 h

With `O=C(Nc1ccn(C2CC(O)C(COC(c3ccccc3)(c3ccccc3)c3ccccc3)O2)c(=O)n1)c1ccccc1` (configuration not stated), the TGI with UACC-257 melanoma is 28.3 µM; in the test with MALME-3M melanoma, 5.89 µM; in the test on OVCAR-4 ovarian, 7.88 µM; in the test with A549 NSCLC, 16.7 µM; with M14 melanoma, 4.57 µM; in the test with OVCAR-3 ovarian it was 3.52 µM. The results for the TGI in the test with SN12C renal, in the test on NCI-H23 lung and in the test on NCI-H460 lung were 3.61 µM, 3.34 µM and 4.31 µM, respectively.

Regarding `Cc1cc(C)c2nc3c(c(C(O)C4CCCCN4)c2c1)CC/C3=C\c1ccc(Cl)cc1` (configuration not stated), the TGI with UACC-257 melanoma, in the test on MALME-3M melanoma, in the test with OVCAR-4 ovarian, in the test on A549 NSCLC, in the test on M14 melanoma and in the test with OVCAR-3 ovarian was over 100 µM each time. Further, the TGI with SN12C renal, in the test with NCI-H23 lung and in the test with NCI-H460 lung was over 100 µM in each case.

Turning to `COc1cc(C2CC(c3ccccc3)=NN2C=O)ccc1Oc1ccnc2cc(Cl)ccc12` (configuration not stated), the GI50 was 4.17 µM in the test on OVCAR-4 ovarian; 8.87 µM in the test on A549 NSCLC; 5.83 µM in the test with M14 melanoma; 18.6 µM with OVCAR-3 ovarian; over 100 µM in the test on LOX IMVI melanoma; over 100 µM in the test on SN12C renal. Besides, the figures for the GI50 with NCI-H23 lung and in the test on NCI-H460 lung were 4.82 µM and 18.5 µM, respectively. Further, the TGI in the test on OVCAR-4 ovarian is 34 µM; with A549 NSCLC, over 100 µM; with M14 melanoma, over 100 µM; in the test on OVCAR-3 ovarian it was over 100 µM; in the test on LOX IMVI melanoma it was over 100 µM; with SN12C renal, over 100 µM. Moreover, the TGI in the test with NCI-H23 lung and with NCI-H460 lung was over 100 µM throughout.

With `C=CCNC(=S)NNC(=O)c1c(C)nc2sccn12`, the TGI in the test on UACC-257 melanoma, with MALME-3M melanoma, in the test on A549 NSCLC, with OVCAR-3 ovarian, in the test on LOX IMVI melanoma and with SN12C renal was over 100 µM each time. Further, the TGI in the test on NCI-H23 lung and in the test on NCI-H460 lung was over 100 µM each time.

Take `COc1cccc(/C=C2\N=C(c3ccccc3)OC2=O)c1`: the TGI in the test with UACC-257 melanoma was over 100 µM; with OVCAR-4 ovarian, over 100 µM; in the test on A549 NSCLC, over 100 µM; in the test on M14 melanoma it was over 100 µM; in the test on OVCAR-3 ovarian, over 100 µM; in the test with LOX IMVI melanoma, 66.8 µM. The TGI with SN12C renal, with NCI-H23 lung and in the test on NCI-H460 lung was over 100 µM each time.

As to `COC(=O)CC1(O)C(=O)OCc2c1cc1n(c2=O)Cc2c-1nc1ccccc1c2OC` (configuration not stated), the TGI in the test on UACC-257 melanoma is over 100 µM; with MALME-3M melanoma, over 100 µM; with OVCAR-4 ovarian it was over 36.1 µM; in the test on A549 NSCLC it was over 100 µM; in the test on M14 melanoma, 32.2 µM; in the test with OVCAR-3 ovarian it was over 57.4 µM. Also, the values for the TGI in the test with LOX IMVI melanoma, in the test on SN12C renal and with NCI-H23 lung were over 81.6 µM, 1.84 µM and 1.68 µM, respectively.

For `CN1C2C=CC(=O)C1C1C(=O)N(c3ccccc3)C(=O)C12` (configuration not stated), the GI50 in the test with UACC-257 melanoma is 2420 nM; in the test on OVCAR-4 ovarian, 11.7 µM; in the test on A549 NSCLC it was 11.1 µM; in the test with M14 melanoma, 9.8 µM; with OVCAR-3 ovarian it was 2.35 µM; in the test with LOX IMVI melanoma, 3.74 µM. For the same compound, the GI50 with SN12C renal is 5.09 µM; in the test with NCI-H23 lung, 13.2 µM; with NCI-H460 lung, 12.7 µM. Besides, the TGI in the test on UACC-257 melanoma is 7.47 µM; with OVCAR-4 ovarian, 38.7 µM; in the test with A549 NSCLC, 29.1 µM; with M14 melanoma, 24.6 µM; with OVCAR-3 ovarian, 6.73 µM; with LOX IMVI melanoma, 13.3 µM. Besides, the TGI with SN12C renal is 31.9 µM; with NCI-H23 lung, 37.1 µM; in the test on NCI-H460 lung, 28.9 µM.

Turning to `CCCN1C(=O)/C(=C/c2ccc(SC(F)(F)F)cc2)SC1=Nc1ccc(OC)cc1`, the GI50 was 2740 nM with UACC-257 melanoma; 8.87 µM in the test on A549 NSCLC; 18.6 µM in the test with M14 melanoma; 13.5 µM in the test with OVCAR-3 ovarian; 4.36 µM with LOX IMVI melanoma; 13.6 µM with SN12C renal. The GI50 in the test with NCI-H23 lung is 12.6 µM; with NCI-H460 lung, 12.1 µM. For the same compound, the TGI in the test with UACC-257 melanoma is 22.4 µM; in the test on A549 NSCLC, 30.1 µM; in the test with M14 melanoma, over 50 µM; with OVCAR-3 ovarian, 31.1 µM; in the test with LOX IMVI melanoma it was over 50 µM; with SN12C renal it was over 50 µM. Further, the TGI is 30.2 µM with NCI-H23 lung and over 50 µM in the test with NCI-H460 lung.

As for `O=S(=O)(c1ccccc1)N1CCCC(c2ccccc2)CC1` (configuration not stated), the TGI in the test on UACC-257 melanoma, in the test with MALME-3M melanoma, with OVCAR-4 ovarian, with A549 NSCLC, in the test on M14 melanoma and with OVCAR-3 ovarian was over 100 µM each time. The TGI in the test on SN12C renal, with NCI-H23 lung and with NCI-H460 lung was over 100 µM in each case.

In the case of `Cc1ccc(NCCNCC(C)(C)O)c2c(=O)c3ccc(Cl)cc3sc12`, the GI50 in the test on UACC-257 melanoma is 1930 nM; with MALME-3M melanoma, 1590 nM; in the test on A549 NSCLC, 1.64 µM; in the test with M14 melanoma, 1.66 µM; in the test on OVCAR-3 ovarian, 1.66 µM; in the test with SN12C renal, 1.47 µM. Moreover, the GI50 with NCI-H23 lung is 1.53 µM; in the test with NCI-H460 lung, 1.22 µM. Besides, the TGI with UACC-257 melanoma is 3.44 µM; in the test with MALME-3M melanoma it was 3.23 µM; with A549 NSCLC, 3.09 µM; in the test on M14 melanoma, 3.26 µM; in the test with OVCAR-3 ovarian, 3.13 µM; in the test on SN12C renal, 3.01 µM. For the same compound, the TGI turned out to be 3.03 µM with NCI-H23 lung and 2.6 µM with NCI-H460 lung.

Take `CC(C)c1ccc(O)c(Cc2cc(C(C)C)cc(Cc3cc(C(C)C)ccc3O)c2O)c1`: the TGI in the test on UACC-257 melanoma was determined as 3.41 µM; in the test on MALME-3M melanoma it was 2.82 µM; in the test with OVCAR-4 ovarian, 2.68 µM; in the test on A549 NSCLC it was 3.96 µM; in the test with M14 melanoma it was 3.23 µM; in the test with OVCAR-3 ovarian, 3.03 µM. Also, the TGI with SN12C renal was found to be 3.16 µM; with NCI-H23 lung, 3.15 µM; with NCI-H460 lung, 3.45 µM.

For `CCOc1ccc2nc(NC(=O)C(=O)C3C(=O)C(CC4C(=O)c5ccccc5C4=O)C(=O)CC3(C)C)sc2c1` (configuration not stated), the TGI with UACC-257 melanoma, in the test on OVCAR-4 ovarian, with A549 NSCLC, in the test with M14 melanoma, in the test on OVCAR-3 ovarian and in the test with LOX IMVI melanoma was over 100 µM throughout. For the same compound, the TGI with SN12C renal, in the test on NCI-H23 lung and in the test with NCI-H460 lung was over 100 µM in each case.
